Assay results: patent publication US8426406B2, “Glucocorticoid receptor agonist comprising 2,2,4-trimethyl-6-phenyl-1,2-dihydroquinoline derivatives having substituted oxy group” (Santen Pharmaceutical Co., Ltd., priority 2008, dated 2013)

What was measured:
Type in all cases: in vivo
[1] = test system: choroidal neovascularization (CNV) model in rats; assay: Evaluation test for inhibitory effect of choroidal neovascularization (laser induced CNV model in rats); settings: Brown Norway rats, 1% (w/v) suspension eye drops four times a day or 20 mg/mL subconjunctival injection (route not given), vs vehicle, mean of 7-8 eyes in 4 rats
Method: The choroidal neovascularization (CNV) model in rats is known as one of the popular methods for evaluating the CNV inhibitory effect of drugs. This method is reported in Graefe's Arch. Cli. Exp. Ophthalmol., 235, 313-319 (1997). According to this method, the CNV examinations were performed to evaluate the CNV inhibitory effect of test compounds by comparing the incidence rates of CNV in vehicle group (control group) with test compound-treated groups.
For eye drop administration, a 1% (w/v) test compound suspension was prepared by adding 0.5% polysorbate 80/saline to the test compound. For subconjunctival injection, a 20 mg/mL test compound suspension was prepared by adding 0.5% hydrogenated castor oil/saline to the test compound.
1) Brown Norway male rats (7-8 weeks, 140-240 g) were anesthetized with intramuscular injection (1 mL/kg) of the mixed solution (5% ketamine HCl: 2% xylazine HCl=7:1).
2) After mydriasis using tropicamide phenylephrine hydrochloride eye drops (trade name Mydrin P), laser photocoagulation of bruch's membrane in rats was performed with krypton laser photocoagulation machine. Laser irradiation was performed at 8-9 points per eye avoiding thick retinal blood vessels in ocular fundus and focusing on the depth of retina. The conditions were 100 μm spot size, 100 mW power, 0.1 second duration.
3) After laser photocoagulation, photographs of ocular fundus were taken and the laser photocoagulation (laser irradiation) points were confirmed.
1) In case of eye drops administration, a test compound suspension was administrated four times a day from laser irradiation day (the 1st day) to the 8th day. In case of subconjunctival injection, a 50 μL test compound suspension was injected into conjunctivae just after laser irradiation.
2) In vehicle group (control group), 0.5% polysorbate 80/saline or 0.5% hydrogenated castor oil/saline was used instead of a test compound suspension. And the test was performed according to the method 1).
1) 7 days after laser irradiation, 0.1 mL of 10% fluorescein was injected into rat tail vein and fluorescein angiography was performed.
2) When the fluorescent leakage was not detected in the fluorescent angiography, the spot was judged to be a negative spot. When the fluorescent leakage was detected, the spot was judged to be a positive spot. When the fluorescent leakage was detected as a little leakage, two spots were counted as one positive spot.
3) The neovascular incidence rate was calculated according to the equation 1. According to the equation 2, the ratio of neovascular incidence rate in test compound group to vehicle group was calculated. Neovascular incidence rate(%)=(Positive spots/all spots)×100 (Equation 1) Angiogenic inhibition ratio in test compound group(%)=(1−Ax/Ao)×100 (Equation 2)
Ao: Neovascular incidence rate in vehicle group (control group)
Ax: Neovascular incidence rate in test compound group

[2] = test system: atopic dermatitis model in mice; assay: Inhibitory effect test on the vascular hyper-permeability in the atopic dermatitis model; settings: DNFB, 1% (W/W) test compound ointment on ears, 21 times in total, dye leakage vs vehicle, 12 ears in 6 animals
Method: In order to evaluate the effects in atopic dermatitis of the present compound, the inhibitory effects of test compound on the vascular hyper-permeability in the atopic dermatitis model in mice were investigated. Procedure of atopic dermatitis model and estimation method was used according to the method of Nagai et al. (J. Pharmacol. Exp. Ther., 283: 321-327 (1997)) with modification. The inhibitory effects were calculated based on dye leakage in vehicle-treated group (control) and test compound-treated group.
The test compound was mixed with white petrolatum, whereby a 1% (W/W) test compound ointment was prepared.
1) Mice were challenged by topical instillation of 25 μL of 0.15% DNFB solution on both sides of both ears once a week for 5 weeks.
2) Test compounds were administered by topical instillation of 25 μL ointments on each side of both ears five times a week from the previous day of the 1st DNFB painting to the previous day of 5th DNFB painting, 21 times in total. Mice were painted with the test compound ointment onto the ear, 25 μL to the inner and 25 μL to outer side. In vehicle-treated group (control group), white petrolatum was administered by topical instillation in the same way.
3) Dyes, a solution of 0.2% Evans blue, were administered to mice intravenously just after the 5th DNFB painting. Ear tissues were removed 2 hours after the intravenous injection of dyes. Then each removed tissue was put into dye extract and dye was extracted. The absorbance of each extract was determined with a spectrophotometer. The amount of dye leakage was calculated from obtained absorbance. The inhibition ratio of the vascular hyper-permeability associated with atopic dermatitis of test compound-treatment group was calculated according to the following equation 1. The inhibition ratio of the vascular hyper-permeability of test compound-treatment group(%)=(1−Ax/Ao)×100 (Calculation Equation 1) Ao: the amount of dye leakage in vehicle-treated group (Control) Ax: the amount of dye leakage in test compound-treated group (Result and Discussion)

[3] = test system: corneal disorder model in rats; assay: Test for therapeutic effects on corneal disorder (corneal disorder model associated with dry eye); settings: male SD rats, exorbital lacrimal gland removed; 0.03% (W/V) ophthalmic suspension instilled 6 times a day for 14 days; fluorescein staining score; 8 eyes in 4 animals
Method: In order to evaluate the improvement effect of corneal disorder with dry eye of the present compounds, using male SD rats, corneal disorder models were produced according to the method of Fujihara et al. (Invest. Ophthalmol. Vis. Sci. 42 (1): 96-100 (2001)). After the production of the corneal disorder models, the improvement ratio of the corneal disorder was assessed according to the method of Murakami et al. (Journal of the eye 21 (1): 87-90 (2004)).
A 0.03% (W/V) test compound ophthalmic suspension was prepared by adding vehicle containing polysorbate 80 and the general additives to test compound.
1) Male SD rats were systemically anesthetized by an administration of Somnopentyl. Subsequently the exorbital lacrimal gland of each rat was removed and a corneal damage was induced over a period of 2 months.
2) The test compound ophthalmic suspension was instilled into both eyes 6 times a day for 14 days. In a control group, vehicle was instilled in the same way.
3) Fourteen days after the start of instillation, the damaged parts of the cornea were stained with fluorescein. For each of the upper, middle and lower parts of the cornea, the degree of fluorescein staining was evaluated by scoring according to the criteria shown below and the mean value of the total scores for each of the above-mentioned parts was calculated. The score range in each divided section is 0 to 3 and the minimum score unit is 0.5. 0.5 was provided as an intermediate value between each score 0, 1, 2, 3.
1: Scattered staining (each punctate staining being separated)
2: Moderate staining (a part of punctate staining being adjacent)
3: Heavy staining (each punctate staining being adjacent) Improvement ratio of test compound instillation group(%)=(Ao−Ax)/(Ao−An)×100 (Calculation Equation)
Ao: the mean value of corneal disorder score in vehicle instilled (control) group
Ax: the mean value of corneal disorder score in test compound instilled group
An: the mean value of corneal disorder score in normal rat group.

## CCCS(=O)(=O)Oc1ccc(-c2ccc3c(c2CNc2ccccc2OC)C(C)=CC(C)(C)N3)c(OC)c1 [Compound 4-18, 5-(2-Methoxyphenylaminomethyl)-6-(2-methoxy-4-propylsulfonyloxyphenyl)-2,2,4-trimethyl-1,2-dihydroquinoline]
[1]
  Angiogenic inhibition ratio (%): 35%
[2]
  Inhibition ratio of the vascular hyper-permeability (%): 30%
[3]
  Improvement ratio of corneal disorder (%): 56%

## COc1cc(OC(=O)c2cccnc2)ccc1-c1ccc2c(c1COc1cc([N+](=O)[O-])ccc1C)C(C)=CC(C)(C)N2 [Compound 1-72, 6-[2-Methoxy-4-(pyridin-3-ylcarbonyloxy)phenyl]-5-(2-methyl-5-nitrophenoxymethyl)-2,2,4-trimethyl-1,2-dihydroquinoline]
[1]
  Angiogenic inhibition ratio (%): 28%
[2]
  Inhibition ratio of the vascular hyper-permeability (%): 15%
[3]
  Improvement ratio of corneal disorder (%): 67%

## COc1cc(OC(=O)c2ccsc2)ccc1-c1ccc2c(c1COc1cc(F)ccc1C)C(C)=CC(C)(C)N2 [Compound 1-12, 5-(5-Fluoro-2-methylphenoxymethyl)-6-[2-methoxy-4-(thiophen-3-ylcarbonyloxy)phenyl]-2,2,4-trimethyl-1,2-dihydroquinoline]
[1]
  Angiogenic inhibition ratio (%): 37%
[2]
  Inhibition ratio of the vascular hyper-permeability (%): 22%
[3]
  Improvement ratio of corneal disorder (%): 69%

## COc1cc(OC(=O)c2ccco2)ccc1-c1ccc2c(c1COc1cc(F)ccc1C)C(C)=CC(C)(C)N2 [Compound 1-13, 5-(5-Fluoro-2-methylphenoxymethyl)-6-[4-(furan-2-ylcarbonyloxy)-2-methoxyphenyl]-2,2,4-trimethyl-1,2-dihydroquinoline]
[1]
  Angiogenic inhibition ratio (%): 38%
[2]
  Inhibition ratio of the vascular hyper-permeability (%): 13%
[3]
  Improvement ratio of corneal disorder (%): 61%
